Values quoted from earlier work, collected in paper PMC10654029 (The Journal of Biological Chemistry, 2023).

What was measured:
[1] = test system: Ba/F3 cells expressing METex14 L1195V; conditions: Ba/F3 cells expressing METex14 L1195V vs WT
[2] = test system: Ba/F3 cells expressing METex14 F1200I; conditions: Ba/F3 cells expressing METex14 F1200I vs WT

## CN1CCC(COc2cnc(-c3cccc(Cn4nc(-c5cccc(C#N)c5)ccc4=O)c3)nc2)CC1 [tepotinib]
[1]
  decrease of cellular potency compared with the WT: ~15 fold
[2]
  decrease of cellular potency compared with the WT: ~15 fold
